Earlier results as cited in patent US9446004B2, “Transdermal nicotine salt delivery system” (ALZA Corporation, priority 2005, dated 2016).
Where two headings read alike, the source gives them in different places.

In the case of `CN1CCCC1c1cccnc1` (centres unmarked) [Nicotine], the pKa (first pKa) is given as “about 8” and the pKa (second pKa) is given as about 3.
